Reference: patent US8927717B1, “Thiochromeno[2,3-c]quinolin-12-one derivatives, preparation method and application thereof” (National Defense Medical Center, priority 2014, dated 2015)

Assays:
Format in all cases: cell-based
SF-295 = conditions: CNS cancer; 10^−5 molar; 48 hours; SRB
KM12 = experiment: cells; conditions: Colon cancer; 10^−5 molar; 48 hours; SRB
786-0 = conditions: Renal cancer; 10^−5 molar; 48 hours; SRB
A549/ATCC = conditions: Non-small cell lung cancer; 10^−5 molar; 48 hours; SRB
U251 = conditions: CNS cancer; 10^−5 molar; 48 hours; SRB
NCI-H226 = conditions: Non-small cell lung cancer; 10^−5 molar; 48 hours; SRB
RPMI-8226 = conditions: Leukemia; 10^−5 molar; 48 hours; SRB
UO-31 = conditions: Renal cancer; 10^−5 molar; 48 hours; SRB
UACC-62 = conditions: Melanoma; 10^−5 molar; 48 hours; SRB
T-47D = conditions: Breast cancer; 10^−5 molar; 48 hours; SRB
MALME-3M = conditions: Melanoma; 10^−5 molar; 48 hours; SRB
SK-MEL-28 = conditions: Melanoma; 10^−5 molar; 48 hours; SRB
60 cancer cell lines = experiment: NCI 60-cell screen, SRB, whole panel (mean, delta, range); conditions: 10^−5 molar, 48 hours, SRB; for Growth percent, Delta: delta over the cell panel; for Growth percent, Mean: mean over the cell panel; for Growth percent, Range: range over the cell panel
DU-145 = conditions: Prostate cancer; 10^−5 molar; 48 hours; SRB
OVCAR-8 = conditions: Ovarian cancer; 10^−5 molar; 48 hours; SRB
HCT-116 = conditions: Colon cancer; 10^−5 molar; 48 hours; SRB
TK-10 = conditions: Renal cancer; 10^−5 molar; 48 hours; SRB
MDA-MB-231/ATCC = conditions: Breast cancer; 10^−5 molar; 48 hours; SRB
NCI-H23 = conditions: Non-small cell lung cancer; 10^−5 molar; 48 hours; SRB
BT-549 = conditions: Breast cancer; 10^−5 molar; 48 hours; SRB
HCT-15 = conditions: Colon cancer; 10^−5 molar; 48 hours; SRB
RXF 393 = conditions: Renal cancer; 10^−5 molar; 48 hours; SRB
NCI-H522 = conditions: Non-small cell lung cancer; 10^−5 molar; 48 hours; SRB
PC-3 = conditions: Prostate cancer; 10^−5 molar; 48 hours; SRB
CCRF-CEM = conditions: Leukemia; 10^−5 molar; 48 hours; SRB
LOX IMVI = conditions: Melanoma; 10^−5 molar; 48 hours; SRB
K-562 = conditions: Leukemia; 10^−5 molar; 48 hours; SRB
MOLT-4 = conditions: Leukemia; 10^−5 molar; 48 hours; SRB
MCF7 = conditions: Breast cancer; 10^−5 molar; 48 hours; SRB
SK-OV-3 = conditions: Ovarian cancer; 10^−5 molar; 48 hours; SRB
SN12C = conditions: Renal cancer; 10^−5 molar; 48 hours; SRB
A498 = conditions: Renal cancer; 10^−5 molar; 48 hours; SRB
OVCAR-5 = conditions: Ovarian cancer; 10^−5 molar; 48 hours; SRB
SK-MEL-5 = conditions: Melanoma; 10^−5 molar; 48 hours; SRB
MDA-MB-486 = conditions: Breast cancer; 10^−5 molar; 48 hours; SRB
SR = conditions: Leukemia; 10^−5 molar; 48 hours; SRB
NCI/ADR-RES = conditions: Ovarian cancer; 10^−5 molar; 48 hours; SRB
MDA-MB-435 = conditions: Melanoma; 10^−5 molar; 48 hours; SRB
SF-268 = conditions: CNS cancer; 10^−5 molar; 48 hours; SRB

For `O=c1c2cc(Cl)ccc2sc2c(NCCO)nc3ccccc3c12` [Compound N9, 10-Chloro-6-(2-ethanolamino)-12H-thiochromeno[2,3-c]quinolin-12-one], the “Growth percent SF-295” value (SF-295) was 92.50%, the “Growth percent KM12” value (KM12) was 91.93% and the “Growth percent 786-0” value (786-0) was 104.43%. The “Growth percent A549/ATCC” value (A549/ATCC) was 80.72%, the “Growth percent U251” value (U251) was 84.10% and the “Growth percent NCI-H226” value (NCI-H226) was 83.55%. For the same molecule, the “Growth percent RPMI-8226” value (RPMI-8226) was 83.81%, the “Growth percent UO-31” value (UO-31) was 51.97% and the “Growth percent UACC-62” value (UACC-62) was 76.52%. For the same molecule, the “Growth percent T-47D” value (T-47D) was 74.45%, the “Growth percent MALME-3M” value (MALME-3M) was 104.86% and the “Growth percent SK-MEL-28” value (SK-MEL-28) was 100.76%. The “Growth percent, Delta” value (60 cancer cell lines) was 56.67%, the “Growth percent, Mean” value (60 cancer cell lines) was 86.33% and the “Growth percent, Range” value (60 cancer cell lines) was 101.96%. For the same molecule, the “Growth percent DU-145” value (DU-145) was 102.77%, the “Growth percent OVCAR-8” value (OVCAR-8) was 78.13% and the “Growth percent HCT-116” value (HCT-116) was 93.62%. The “Growth percent TK-10” value (TK-10) was 78.14%, the “Growth percent MDA-MB-231/ATCC” value (MDA-MB-231/ATCC) was 66.62% and the “Growth percent NCI-H23” value (NCI-H23) was 86.06%. For the same molecule, the “Growth percent BT-549” value (BT-549) was 131.62%, the “Growth percent HCT-15” value (HCT-15) was 78.61% and the “Growth percent RXF 393” value (RXF 393) was 92.81%. The “Growth percent NCI-H522” value (NCI-H522) was 76.94%, the “Growth percent PC-3” value (PC-3) was 71.70% and the “Growth percent CCRF-CEM” value (CCRF-CEM) was 81.07%. For the same molecule, the “Growth percent LOX IMVI” value (LOX IMVI) was 86.96%, the “Growth percent K-562” value (K-562) was 68.23% and the “Growth percent MOLT-4” value (MOLT-4) was 78.76%. The “Growth percent MCF7 (Table 2: MCF)” value (MCF7) was 29.66%, the “Growth percent SK-OV-3” value (SK-OV-3) was 104.57% and the “Growth percent SN12C” value (SN12C) was 92.52%. For the same molecule, the “Growth percent A498” value (A498) was 65.78%, the “Growth percent OVCAR-5” value (OVCAR-5) was 101.56% and the “Growth percent SK-MEL-5” value (SK-MEL-5) was 97.36%. For the same molecule, the “Growth percent MDA-MB-486” value (MDA-MB-486) was 39.59%, the “Growth percent SR” value (SR) was 60.44% and the “Growth percent NCI/ADR-RES” value (NCI/ADR-RES) was 91.54%. The “Growth percent MDA-MB-435” value (MDA-MB-435) was 94.98% and the “Growth percent SF-268” value (SF-268) was 95.06%.
With `CC(C)CC(C)Nc1nc2ccccc2c2c(=O)c3cc(Cl)ccc3sc12` (stereo not shown) [Compound N13, 10-Chloro-6-((4-methylpentan-2-yl)amino)-12H-thiochromeno[2,3-c]quinolin-12-one] the “Growth percent SF-295” value (SF-295) was 95.92%, the “Growth percent KM12” value (KM12) was 105.66% and the “Growth percent 786-0” value (786-0) was 99.74%. The “Growth percent A549/ATCC” value (A549/ATCC) was 101.98%, the “Growth percent U251” value (U251) was 105.12% and the “Growth percent NCI-H226” value (NCI-H226) was 87.55%. The “Growth percent RPMI-8226” value (RPMI-8226) was 97.78%, the “Growth percent UO-31” value (UO-31) was 78.64% and the “Growth percent UACC-62” value (UACC-62) was 96.09%. The “Growth percent T-47D” value (T-47D) was 73.76%, the “Growth percent MALME-3M” value (MALME-3M) was 95.93% and the “Growth percent SK-MEL-28” value (SK-MEL-28) was 106.87%. The “Growth percent, Delta” value (60 cancer cell lines) was 22.57%, the “Growth percent, Mean” value (60 cancer cell lines) was 96.33% and the “Growth percent, Range” value (60 cancer cell lines) was 49.47%. For the same molecule, the “Growth percent DU-145” value (DU-145) was 113.48%, the “Growth percent OVCAR-8” value (OVCAR-8) was 92.79% and the “Growth percent HCT-116” value (HCT-116) was 90.30%. The “Growth percent TK-10” value (TK-10) was 123.23%, the “Growth percent MDA-MB-231/ATCC” value (MDA-MB-231/ATCC) was 84.22% and the “Growth percent NCI-H23” value (NCI-H23) was 95.10%. For the same molecule, the “Growth percent BT-549” value (BT-549) was 103.61%, the “Growth percent HCT-15” value (HCT-15) was 96.97% and the “Growth percent RXF 393” value (RXF 393) was 98.67%. The “Growth percent NCI-H522” value (NCI-H522) was 102.30%, the “Growth percent PC-3” value (PC-3) was 86.33% and the “Growth percent CCRF-CEM” value (CCRF-CEM) was 98.57%. For the same molecule, the “Growth percent LOX IMVI” value (LOX IMVI) was 98.90%, the “Growth percent K-562” value (K-562) was 106.64% and the “Growth percent MOLT-4” value (MOLT-4) was 93.68%. For the same molecule, the “Growth percent MCF7 (Table 2: MCF)” value (MCF7) was 73.82%, the “Growth percent SK-OV-3” value (SK-OV-3) was 86.70% and the “Growth percent SN12C” value (SN12C) was 95.14%. For the same molecule, the “Growth percent A498” value (A498) was 75.01%, the “Growth percent OVCAR-5” value (OVCAR-5) was 101.36% and the “Growth percent SK-MEL-5” value (SK-MEL-5) was 90.71%. For the same molecule, the “Growth percent MDA-MB-486” value (MDA-MB-486) was 96.02%, the “Growth percent SR” value (SR) was 97.29% and the “Growth percent NCI/ADR-RES” value (NCI/ADR-RES) was 98.47%. For the same molecule, the “Growth percent MDA-MB-435” value (MDA-MB-435) was 108.08% and the “Growth percent SF-268” value (SF-268) was 105.52%.
